Experimental data reported in the CheMixHub viscosity set.
Values joined by “and” are separate entries in the source; they are usually repeats but may differ in a detail not shown here. Equal values may be shown once. ± gives the uncertainty stated by the source. Each block holds one molecule with its values, some of them ahead of it.

viscosity (298.15 K, 100 kPa): 0.971 ± 0.059 mPa·s
viscosity (303.15 K, 100 kPa): 0.886 ± 0.05 mPa·s
viscosity (303.15 K, 101 kPa): 0.886 ± 0.023 mPa·s
viscosity (308.15 K, 101 kPa): 0.808 ± 0.022 mPa·s
viscosity (313.15 K, 100 kPa): 0.728 ± 0.05 mPa·s
viscosity (318.15 K, 101 kPa): 0.642 ± 0.019 mPa·s
SMILES: Cc1ccccc1Cl
viscosity (308.15 K, 100 kPa): 0.808 ± 0.05 mPa·s and 0.857 ± 0.052 mPa·s
viscosity (313.15 K, 101 kPa): 0.741 ± 0.012 mPa·s and 0.728 ± 0.02 mPa·s
viscosity (318.15 K, 100 kPa): 0.642 ± 0.05 mPa·s and 0.763 ± 0.046 mPa·s

SMILES: CCCCCCCN
viscosity (303.15 K, 101 kPa): 0.8789 ± 0.0074 mPa·s

SMILES: CC(=O)C=C(C)C
viscosity (298.15 K, 101 kPa): 0.876 ± 0.011 mPa·s

viscosity (298.15 K, 101 kPa): 196.2 ± 73 mPa·s
viscosity (313.15 K, 101 kPa): 80.85 ± 11 mPa·s
viscosity (323.15 K, 101 kPa): 50.22 ± 1.4 mPa·s
SMILES: CCCC[n+]1ccc(C)cc1.F[B-](F)(F)F

SMILES: C1C[C@@H]2[C@H]3CC[C@H](C3)[C@@H]2C1
viscosity (293.15 K, 100 kPa): 2.974 ± 0.065 mPa·s and 3.07 ± 0.31 mPa·s
viscosity (298.15 K, 100 kPa): 2.785 ± 0.025 mPa·s and 2.694 ± 0.059 mPa·s
viscosity (298.15 K, 101 kPa): 2.77 ± 0.042 mPa·s
viscosity (298.15 K, 101.33 kPa): 2.769 ± 0.17 mPa·s
viscosity (303.15 K, 100 kPa): 2.535 ± 0.023 mPa·s and 2.454 ± 0.054 mPa·s
viscosity (308.15 K, 100 kPa): 2.243 ± 0.049 mPa·s
viscosity (308.15 K, 101.33 kPa): 2.283 ± 0.14 mPa·s

SMILES: ClCCCCCl
viscosity (298.15 K, 101 kPa): 1.319 ± 0.012 mPa·s
viscosity (303.15 K, 101 kPa): 1.218 ± 0.011 mPa·s
viscosity (308.15 K, 101 kPa): 1.128 ± 0.011 mPa·s
viscosity (313.15 K, 101 kPa): 1.043 ± 0.0099 mPa·s

SMILES: Nc1cccc(Cl)c1
viscosity (298.15 K, 101 kPa): 3.495 ± 0.093 mPa·s
viscosity (303.15 K, 101 kPa): 3.256 ± 0.83 mPa·s

viscosity (298.15 K, 101 kPa): 2.6 ± 0.05 mPa·s
viscosity (303.15 K, 101 kPa): 2.066 ± 0.062 mPa·s
viscosity (308.15 K, 101 kPa): 1.856 ± 0.056 mPa·s
viscosity (313.15 K, 101 kPa): 1.676 ± 0.051 mPa·s
viscosity (318.15 K, 101 kPa): 1.73 ± 0.04 mPa·s
SMILES: CC12CCC(CC1)C(C)(C)O2

viscosity (303.15 K, 101 kPa): 41.29 ± 0.6 mPa·s
viscosity (308.15 K, 101 kPa): 31.59 ± 0.49 mPa·s
viscosity (313.15 K, 101 kPa): 24.47 ± 0.37 mPa·s
viscosity (318.15 K, 101 kPa): 19.39 ± 0.29 mPa·s
viscosity (323.15 K, 101 kPa): 15.47 ± 0.25 mPa·s
SMILES: CCCCN(CCO)CCO

SMILES: CCCCN(CCO)CCCC
viscosity (303.15 K, 100 kPa): 4.6 mPa·s

viscosity (293.15 K, 100 kPa): 1.8 ± 0.08 mPa·s and 1.803 mPa·s
viscosity (298.15 K, 100 kPa): 1.71 ± 0.037 mPa·s
viscosity (298.15 K, 103 kPa): 1.63 ± 0.042 mPa·s
viscosity (308.15 K, 103 kPa): 1.356 ± 0.042 mPa·s
viscosity (318.15 K, 100 kPa): 1.215 ± 0.026 mPa·s
viscosity (318.15 K, 103 kPa): 1.146 ± 0.041 mPa·s
SMILES: CCCCCCCCCCCCC
viscosity (308.15 K, 100 kPa): 1.428 ± 0.031 mPa·s and 1.319 ± 0.13 mPa·s
viscosity (323.15 K, 100 kPa): 1.124 ± 0.024 mPa·s and 1.1 ± 0.05 mPa·s and 1.104 mPa·s

viscosity (293.15 K, 102 kPa): 0.932 ± 0.021 mPa·s
viscosity (303.15 K, 102 kPa): 0.812 ± 0.021 mPa·s
viscosity (313.15 K, 102 kPa): 0.712 ± 0.021 mPa·s
viscosity (323.15 K, 102 kPa): 0.632 ± 0.021 mPa·s
SMILES: CCC(C)c1ccccc1 (stereo not given)
